We go through two molecules from patent publication US20210038577A1, “THIOREDOXIN REDUCTASE INHIBITORS FOR USE IN THE TREATMENT OF CANCER” (Cinda Pharma AB, priority 2018, published 2021).

For one data set, the system named is MDA-MB-231 cells. Kind of data set: CellQuanti-Blue cell viability assay, MDA-MB-231. It counts as cell-based, human. The procedure: Cell viability was then assessed using the CellQuanti assay. Relative cell viability was determined using DMSO only and blank controls.
Cells were plated at 2000 cells/well into 96-well plates in media containing 10% FBS. […] CellQuanti-Blue cell viability reagent was added to each well and the plates were subsequently incubated at 37° C. for 3 hours. Viability was determined fluorometrically using an Enspire plate reader […] excitation: 530 nm, emission: 590 nm. Viability was normalized to DMSO controls and blank wells with media.

The test system of data set [1] is immune cells isolated from human blood donors (neutrophils, PBMC, monocytes, CD8+, CD4+, Tregs). Nature of the data set: Viability of isolated immune cells (MTT assay). The data set is classed as cell-based. The settings on record: 24 h, up to 33 μM. Here is the method:
Viability of neutrophils after treatment with OT-1096 for 24 h was assessed using donated blood from a healthy volunteer (HBsAg, HIV I&II negative), (Blood collection date: 1 Jun. 2017) where neutrophils were isolated using dextran sedimentation followed by hypotonic lysis and final isolation by Histopaque 1077 (Sigma-Aldrich). Viability was assessed using an MTT assay.
Viability of PBMC (peripheral blood mononuclear cells) after treatment with OT-1096 for 24 h was assessed using donated blood from two different donors. Donor-1, a healthy volunteer (HBsAg, HIV I&II negative), (Blood collection date: 1 Jun. 2017). […] Viability was assessed using an MTT assay.
Viability of monocytes after treatment with OT-1096 for 24 h was assessed using donated blood from a healthy volunteer (HBsAg, HIV I&II negative), (Blood collection date: 8 Jun. 2017) where monocytes was isolated by Histopaque 1077 (Sigma-Aldrich) followed by purification with MiniMACS system of ‘Miltenyi Biotec’ using CD14 microbeads (Cat No. 130-050-201). Viability was assessed using an MTT assay. […]
Viability of CD4+ cells after treatment with OT-1096 for 24 h was assessed using donated blood from a healthy volunteer (HBsAg, HIV I&II negative) where CD4+ cells were isolated by Histopaque 1077 (Sigma-Aldrich) followed by purification with MiniMACS system of ‘Miltenyi Biotec’ using CD4+ T Cell Isolation Reagent (Cat No. 130-096-533). […]

The subject of data set [2] is 4T1-luc2 murine tumor cells. Kind of data set: 4T1-luc2 tumors in mammary fat pad of immunocompetent BALB/c mice. The data set is classed as in vivo. The conditions noted are these: 5 mg/kg 5/2 for 15 days, bioluminescence. Here is the method: Female BALB/c immunocompetent mice were implanted with 1×10^5 4T1-luc2 murine tumor cells into the mammary fat pad. Upon growth of the tumors between 60-90 mm^3 the animals were selected for imaging. Mice were randomized and enrolled for treatment based on imaging flux values. Mice were treated once daily with 5 mg/kg of either OT-1096 or vehicle control using a 5/2 (five days on, two days off) dosing protocol. Upon days 1, 8, and 15 whole body imaging was performed on the mice to follow tumor cell luminescence. Analysis consists of primary tumor luminescence in mice. Each mouse was normalized to its own baseline luminescence from day 1. […] Data is represented as mean±SEM. Statistical significance (p<0.05) was determined using a Mann-Whitney test. The relative luminescence flux for mice treated with OT-1096 was significant compared to vehicle at day 15.
Athymic nude mice were inoculated orthotopically with 5×10^6 MDA-MB-231 breast cancer cells into the mammary fat pad, and randomized for treatment when tumors reached an average volume of 80-120 mm^3 (N=12 in each group). […] Xenograft tumor volume was assessed using caliper measurements for 25 days. […] Xenograft tumor volume was assessed using caliper measurements for 25 days. […] Statistical significance (p<0.05) was determined using a Two-way repeated measures ANOVA with Sidak's multiple comparison test. […]

Structures are written as SMILES.

For the molecule `COc1ccc([N+](=O)[O-])c(S(=O)(=O)c2ccc(Cl)cc2)n1` [OT-1000, 2-((4-Chlorophenyl)sulfonyl)-6-methoxy-3-nitropyridine], the “sensitivity of MDA-MB-231 cells over time of exposure” value in the data set with MDA-MB-231 cells (24, 48, 72 hours (FIG. 2A)) was “increasingly sensitive”. Besides, in the data set on MDA-MB-231 cells (CellQuanti-Blue, 24, 48 or 72 hours), the “potency relative to Iniparib in MDA-MB-231 cells” value came out at 100 fold.

With `CCCCCCCCS(=O)(=O)c1nc(OC)ccc1[N+](=O)[O-]` [OT-1096, 6-methoxy-3-nitro-2-(octylsulfonyl)pyridine], in data set [1], the “cytotoxicity in isolated immune cell populations” value is given as “No (or low) cytotoxicity”. Also, the “% TGI” value in data set [2] is on record as 54%.
